What is called IC50 is the concentration that inhibits the measured activity by half.

In one test the test system is HCT-116. The test can be described thus: cells. The conditions noted are these: Homo sapiens, HCT-116, 72 h.
The test system of a further test is HCT-8. The test can be described thus: Antiproliferative activity against human HCT-8 cells incubated for 72 hrs by MTT assay. The class given is functional, cell-based. The conditions noted are these: HCT-8, 72 h.
Another test has as its system HCT-15. The test can be described thus: Antiproliferative activity against human HCT-15 cells incubated for 72 hrs by MTT assay. Type of test: functional, cell-based. The note with it: HCT-15, 72 h. A general note: Tetrazolium assays rely on reduction of a dye to a coloured formazan, in cell work by metabolically active cells.
The next test has as its system HT-29. Briefly: cells. The note with it: Homo sapiens, HT-29, 72 h.

Description for HCT-116: Antiproliferative activity against human HCT-116 cells incubated for 72 hrs by MTT assay
Description for HT-29: Antiproliferative activity against human HT-29 cells incubated for 72 hrs by MTT assay

Consider `CCCCc1ccc(Nc2ccc(Oc3cc(OC)c(CNCCc4ccc(C(F)(F)F)cc4)c(OC)c3)cc2)cc1`, for which the IC50 in the test with HCT-116 is 3.1 µM; in the test with HCT-8, 4.98 µM; with HCT-15, 4.86 µM; in the test with HT-29 it was 1.75 µM.
On to `CCCc1ccc(Nc2ccc(Oc3cc(OC)c(CNCCc4ccc(C(F)(F)F)cc4)c(OC)c3)cc2)cc1`, for which the IC50 with HCT-116 is 3.23 µM; in the test on HCT-8, 4.1 µM; with HCT-15, 5.62 µM; in the test with HT-29, 1.6 µM.
`COc1cc(Oc2ccc(Nc3ccc(-c4cnc5ccccc5c4)cc3)cc2)cc(OC)c1CNCCc1ccc(C(F)(F)F)cc1`: the IC50 with HCT-116 was 3.12 µM; with HCT-8, 6.77 µM; with HCT-15, 1.58 µM; in the test with HT-29 it was 1.99 µM.
For the compound `COc1ccc(Nc2ccc(Oc3cc(OC)c(CNCCc4ccc(C(F)(F)F)cc4)c(OC)c3)cc2)cc1`, the IC50 is 1.91 µM in the test on HCT-116, 4.22 µM with HCT-8, 6.37 µM in the test with HCT-15 and 1.41 µM with HT-29.
For `COc1cc(Oc2ccc(-c3ccccc3)cc2)cc(OC)c1CNCCc1ccc(C(F)(F)F)cc1` the same measures were 2.8 µM, 6.98 µM, 1.55 µM and 1.41 µM.
For `COc1ccc(Nc2ccc(Oc3cc(OC)c(CNCCc4ccc(C(F)(F)F)cc4)c(OC)c3)cc2)cc1OC` the same measures were 1.35 µM, 3.13 µM, 3.35 µM and 0.92 µM.
In the case of `COc1cc(Oc2ccc(Nc3ccccc3)cc2)cc(OC)c1CNCCc1ccc(Cl)cc1`, the IC50 with HCT-116 turned out to be 4.98 µM; in the test on HCT-8, 6.13 µM; in the test on HCT-15 it was 6.64 µM; in the test on HT-29, 2.44 µM.
`COc1ccc(Nc2ccc(Oc3cc(OC)c(CNCCc4ccc(C(F)(F)F)cc4)c(OC)c3)cc2)cc1C`: the IC50 in the test on HCT-116 is 5.25 µM; in the test with HCT-8 it was 6.97 µM; in the test on HCT-15, 7.09 µM; in the test on HT-29, 2.34 µM.
Turning to `COc1cc(Oc2ccc(Nc3ccccc3)cc2)cc(OC)c1CNCCc1cccs1`, the IC50 is 3.85 µM in the test with HCT-116, 10.8 µM with HCT-8, 7.56 µM with HCT-15 and 2.65 µM with HT-29.
As to `COc1cc(Oc2ccc(Nc3ccc(C(F)(F)F)cc3)cc2)cc(OC)c1CNCCc1ccc(C(F)(F)F)cc1`, the IC50 amounted to 6.46 µM with HCT-116, 8.49 µM in the test with HCT-8, 3.24 µM with HCT-15 and 1.31 µM in the test on HT-29.
As for `COc1cc(Oc2ccc(Nc3ccc(Cl)cc3)cc2)cc(OC)c1CNCCc1ccc(C(F)(F)F)cc1`, the IC50 amounted to 3.53 µM in the test on HCT-116, 4.1 µM in the test on HCT-8, 5.31 µM in the test with HCT-15 and 1.29 µM with HT-29.
As for `COc1cc(Oc2ccc(Nc3ccc(CCO)cc3)cc2)cc(OC)c1CNCCc1ccc(C(F)(F)F)cc1`, the IC50 with HCT-116 came out at 2.05 µM; with HCT-8, 3.58 µM; with HCT-15, 3.21 µM; in the test with HT-29, 0.86 µM.
For the compound `COc1cc(Oc2ccc(-c3ccc(C(F)(F)F)cc3)cc2)cc(OC)c1CNCCc1ccc(C(F)(F)F)cc1`, the IC50 with HCT-116 is 4.7 µM; in the test with HCT-8 it was 8.76 µM; in the test with HCT-15, 4.89 µM; with HT-29, 2.51 µM.
Turning to `COc1cc(Oc2ccc(Nc3ccc(Cc4ccccc4)cc3)cc2)cc(OC)c1CNCCc1ccc(C(F)(F)F)cc1`, the IC50 was found to be 5.21 µM in the test with HCT-116, 6.57 µM in the test with HCT-8, 4.48 µM with HCT-15 and 1.13 µM with HT-29.
Consider `COc1cc(Oc2ccc(Nc3ccc(Br)cc3)cc2)cc(OC)c1CNCCc1ccc(C(F)(F)F)cc1`, for which the IC50 in the test with HCT-116 is 3.54 µM; in the test on HCT-8 it was 6.98 µM; in the test with HCT-15, 3.85 µM; in the test with HT-29, 1.31 µM.
Regarding `COc1cc(Oc2ccc(Nc3ccc(CO)cc3)cc2)cc(OC)c1CNCCc1ccc(C(F)(F)F)cc1`, the IC50 in the test with HCT-116 is 3.22 µM; with HCT-8, 3.23 µM; in the test with HCT-15, 3.33 µM; in the test with HT-29, 1.03 µM.
Take `COC(=O)c1ccc(Nc2ccc(Oc3cc(OC)c(CNCCc4ccc(C(F)(F)F)cc4)c(OC)c3)cc2)cc1`: the IC50 with HCT-116 stood at 5.98 µM; in the test with HCT-8, 7.34 µM; in the test on HCT-15, 4.35 µM; with HT-29 it was 1.28 µM.
For `COc1cc(Oc2ccc(Nc3ccccc3)cc2)cc(OC)c1CNCCc1ccc(C)cc1` the same measures were 4.01 µM, 10.2 µM, 5.88 µM and 2.83 µM.
For `COc1cc(Oc2ccc(Nc3ccc(C(F)(F)F)c(F)c3)cc2)cc(OC)c1CNCCc1ccc(C(F)(F)F)cc1` the same measures were 1.74 µM, 8.63 µM, 2.34 µM and 1.42 µM.
`COc1ccc(CCNCc2c(OC)cc(Oc3ccc(Nc4ccccc4)cc3)cc2OC)cc1OC`: the IC50 is 2.62 µM in the test on HCT-116, 6.32 µM in the test with HCT-8, 3.54 µM with HCT-15 and 1.54 µM with HT-29.
With `COc1ccc(-c2ccc(Oc3cc(OC)c(CNCCc4ccc(C(F)(F)F)cc4)c(OC)c3)cc2)cc1`, the IC50 amounted to 2.62 µM in the test on HCT-116, 6.45 µM in the test with HCT-8, 2.34 µM with HCT-15 and 2.19 µM with HT-29.
For `CCc1ccc(Nc2ccc(Oc3cc(OC)c(CNCCc4ccc(C(F)(F)F)cc4)c(OC)c3)cc2)cc1` the same measures were 3.87 µM, 4.58 µM, 5.54 µM and 1.51 µM.
For `COc1cc(Oc2ccc(-c3ccc(F)cc3)cc2)cc(OC)c1CNCCc1ccc(C(F)(F)F)cc1` the same measures were 3.77 µM, 7.89 µM, 4.23 µM and 1.95 µM.
As to `COc1cc(Oc2ccc(Nc3ccc(C)cc3)cc2)cc(OC)c1CNCCc1ccc(C(F)(F)F)cc1`, the IC50 with HCT-116 was 2.13 µM; in the test with HCT-8 it was 7.13 µM; with HCT-15, 5.61 µM; with HT-29, 1.11 µM.
Consider `COc1cc(Oc2ccc(-c3ccc(C)cc3)cc2)cc(OC)c1CNCCc1ccc(C(F)(F)F)cc1`, for which the IC50 in the test with HCT-116 was 2.41 µM; with HCT-8, 8.95 µM; in the test on HCT-15 it was 2.32 µM; in the test on HT-29 it was 1.35 µM.
Regarding `COc1cc(Oc2ccc(Nc3ccccc3)cc2)cc(OC)c1CNCCc1ccc(O)cc1`, the 50% inhibitory concentration (IC50) in the test with HCT-116 is 3.46 µM; with HCT-8, 6.78 µM; in the test with HCT-15 it was 4.54 µM; with HT-29 it was 2.75 µM.
Taken in the same sequence, the figures for `COc1cc(Oc2ccc(Nc3ccccc3)cc2)cc(OC)c1CNCCc1ccc(Br)cc1` were 2.96 µM, 7.13 µM, 6.97 µM and 2.38 µM.
Regarding `COc1cc(Oc2ccc(Nc3ccccc3)cc2)cc(OC)c1CNCCc1ccccn1`, the IC50 with HCT-116 turned out to be 2.76 µM; in the test with HCT-8, 11.2 µM; in the test with HCT-15, 6.87 µM; with HT-29, 2.94 µM.
For the compound `COc1cc(Oc2ccc(Nc3ccc(SC)cc3)cc2)cc(OC)c1CNCCc1ccc(C(F)(F)F)cc1`, the IC50 in the test with HCT-116 worked out at 3.79 µM; in the test on HCT-8 it was 8.36 µM; in the test on HCT-15, 2.13 µM; in the test with HT-29 it was 1.72 µM.
Consider `COc1cc(Oc2ccc(Nc3ccccc3)cc2)cc(OC)c1CNCCc1ccc(C(F)(F)F)cc1`, for which the IC50 was determined as 1.75 µM with HCT-116, 4.23 µM in the test on HCT-8, 2.78 µM with HCT-15 and 1.05 µM in the test on HT-29.
Regarding `COc1cc(Oc2ccc(Nc3ccccc3)cc2)cc(OC)c1CNCCc1ccc(N)cc1`, the IC50 is 2.87 µM in the test on HCT-116, 6.21 µM in the test on HCT-8, 5.65 µM in the test on HCT-15 and 2.65 µM in the test on HT-29.
As to `COc1cc(Oc2ccc(Nc3ccc(C(=O)C(F)(F)F)cc3)cc2)cc(OC)c1CNCCc1ccc(C(F)(F)F)cc1`, the IC50 with HCT-116 was found to be 2.43 µM; in the test with HCT-8, 7.86 µM; with HCT-15 it was 1.89 µM; in the test with HT-29, 1.93 µM.
Taken in the same sequence, the figures for `COc1cc(Oc2ccc(Nc3ccc(C(F)(F)F)c(C(F)(F)F)c3)cc2)cc(OC)c1CNCCc1ccc(C(F)(F)F)cc1` were 1.64 µM, 6.98 µM, 2.12 µM and 2.35 µM.
In the case of `COc1cc(Oc2ccc(Nc3ccc(-c4ccccc4)cc3)cc2)cc(OC)c1CNCCc1ccc(C(F)(F)F)cc1`, the IC50 in the test with HCT-116 was 3.85 µM; in the test on HCT-8, 5.88 µM; in the test on HCT-15, 3.41 µM; in the test with HT-29 it was 1.7 µM.
Consider `COc1cc(Oc2ccc(Nc3ccccc3)cc2)cc(OC)c1CNCCc1ccc(F)cc1`, for which the IC50 in the test with HCT-116 is 3.13 µM; in the test on HCT-8, 6.32 µM; with HCT-15, 5.64 µM; in the test on HT-29, 2.79 µM.
As to `COc1cc(Oc2ccc(-c3ccc(Br)cc3)cc2)cc(OC)c1CNCCc1ccc(C(F)(F)F)cc1`, the IC50 with HCT-116 is 2.71 µM; in the test with HCT-8, 8.75 µM; in the test on HCT-15, 2.23 µM; with HT-29, 2.57 µM.
In the case of `COc1cc(Oc2ccc(Nc3ccc(C#N)cc3)cc2)cc(OC)c1CNCCc1ccc(C(F)(F)F)cc1`, the IC50 was found to be 2.38 µM in the test on HCT-116, 6.75 µM in the test with HCT-8, 2.43 µM with HCT-15 and 0.9 µM in the test on HT-29.
On to `COc1cc(Oc2ccc(-c3ccc(Cl)cc3)cc2)cc(OC)c1CNCCc1ccc(C(F)(F)F)cc1`, for which the IC50 in the test with HCT-116 came to 5.05 µM; with HCT-8 it was 6.09 µM; in the test on HCT-15 it was 3.23 µM; in the test on HT-29, 2.06 µM.
`COc1cc(Oc2ccc(Nc3ccc(C(C)(C)C)cc3)cc2)cc(OC)c1CNCCc1ccc(C(F)(F)F)cc1`: the IC50 was 6.48 µM with HCT-116, 9.76 µM with HCT-8, 5.76 µM in the test with HCT-15 and 2.18 µM in the test with HT-29.
With `CCOc1ccc(Nc2ccc(Oc3cc(OC)c(CNCCc4ccc(C(F)(F)F)cc4)c(OC)c3)cc2)cc1`, the IC50 with HCT-116 came to 3.08 µM; in the test on HCT-8, 5.32 µM; in the test with HCT-15, 5.3 µM; with HT-29 it was 0.86 µM.
For `COc1cc(Oc2ccc(Nc3ccc(F)cc3)cc2)cc(OC)c1CNCCc1ccc(C(F)(F)F)cc1` the same measures were 3.4 µM, 5.32 µM, 6.23 µM and 1.47 µM.

The record behind these values is ChEMBL document CHEMBL5352446, “Synthesis and biological evaluation of a novel c-Myc inhibitor against colorectal cancer via blocking c-Myc/Max heterodimerization and disturbing its DNA binding” (Eur J Med Chem, 2022).
